{"source": "ChEMBL document CHEMBL1134183", "about": "“First tricyclic oximino derivatives as 5-HT3 ligands” (Bioorg Med Chem Lett, 2001)", "key": {"[1]": {"target": "Serotonin 3 (5-HT3) receptor", "assay": "Binding affinity towards 5-hydroxytryptamine 3 receptor", "format": "protein-complex assay"}, "[2]": {"target": "Sodium-dependent noradrenaline transporter (Homo sapiens) (UniProt P23975)", "sequence (P23975 whole entry)": "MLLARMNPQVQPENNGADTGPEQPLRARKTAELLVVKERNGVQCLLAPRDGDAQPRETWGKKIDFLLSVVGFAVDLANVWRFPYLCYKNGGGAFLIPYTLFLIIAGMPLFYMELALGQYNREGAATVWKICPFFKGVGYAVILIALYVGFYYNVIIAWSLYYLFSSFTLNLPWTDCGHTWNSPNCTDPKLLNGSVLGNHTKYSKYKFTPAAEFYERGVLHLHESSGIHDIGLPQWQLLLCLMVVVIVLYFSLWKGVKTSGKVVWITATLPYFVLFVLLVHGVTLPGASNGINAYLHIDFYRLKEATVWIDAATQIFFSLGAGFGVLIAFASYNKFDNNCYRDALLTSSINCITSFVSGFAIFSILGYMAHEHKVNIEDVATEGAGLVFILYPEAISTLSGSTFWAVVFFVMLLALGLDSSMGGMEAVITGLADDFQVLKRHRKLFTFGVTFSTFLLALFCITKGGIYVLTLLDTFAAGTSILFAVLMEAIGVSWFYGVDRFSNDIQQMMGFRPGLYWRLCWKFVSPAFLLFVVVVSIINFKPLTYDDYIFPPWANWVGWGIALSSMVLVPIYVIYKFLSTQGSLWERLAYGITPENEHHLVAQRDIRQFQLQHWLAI", "assay": "Compound was tested for binding affinity against noradrenergic uptake"}, "[3]": {"target": "5-hydroxytryptamine receptor 1B (Homo sapiens, UniProt P28222)", "sequence (P28222 whole entry)": "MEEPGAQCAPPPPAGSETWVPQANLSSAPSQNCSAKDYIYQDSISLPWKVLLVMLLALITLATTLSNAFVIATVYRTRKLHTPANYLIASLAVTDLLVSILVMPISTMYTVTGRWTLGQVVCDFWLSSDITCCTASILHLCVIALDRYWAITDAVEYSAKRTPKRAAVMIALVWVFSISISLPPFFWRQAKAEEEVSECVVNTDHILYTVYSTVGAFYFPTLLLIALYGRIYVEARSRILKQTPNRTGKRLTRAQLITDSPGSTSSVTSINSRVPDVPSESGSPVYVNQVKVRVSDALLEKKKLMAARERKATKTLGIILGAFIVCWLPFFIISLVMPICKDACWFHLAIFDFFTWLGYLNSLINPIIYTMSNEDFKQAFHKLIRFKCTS", "assay": "Compound was tested for binding affinity against 5-hydroxytryptamine 1B receptor"}, "[4]": {"target": "T1, 5-hydroxytryptamine receptor 1A (Homo sapiens, UniProt P08908)", "T1 sequence (P08908 whole entry)": "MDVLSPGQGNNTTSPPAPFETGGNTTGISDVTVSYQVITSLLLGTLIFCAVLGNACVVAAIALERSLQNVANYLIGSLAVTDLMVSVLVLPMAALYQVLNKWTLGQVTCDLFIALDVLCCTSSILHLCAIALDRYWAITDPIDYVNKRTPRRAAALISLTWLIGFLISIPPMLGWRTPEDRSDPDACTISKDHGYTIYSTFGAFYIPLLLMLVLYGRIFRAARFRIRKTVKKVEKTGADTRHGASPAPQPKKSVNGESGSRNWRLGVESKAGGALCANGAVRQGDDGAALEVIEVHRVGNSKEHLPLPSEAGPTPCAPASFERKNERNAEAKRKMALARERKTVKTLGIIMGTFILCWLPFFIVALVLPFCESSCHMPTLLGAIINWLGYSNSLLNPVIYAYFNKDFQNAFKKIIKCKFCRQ", "assay": "Compound was tested for binding affinity against 5-hydroxytryptamine 1A receptor"}, "[5]": {"target": "5-hydroxytryptamine receptor 1D (Homo sapiens, UniProt P28221)", "sequence (P28221 whole entry)": "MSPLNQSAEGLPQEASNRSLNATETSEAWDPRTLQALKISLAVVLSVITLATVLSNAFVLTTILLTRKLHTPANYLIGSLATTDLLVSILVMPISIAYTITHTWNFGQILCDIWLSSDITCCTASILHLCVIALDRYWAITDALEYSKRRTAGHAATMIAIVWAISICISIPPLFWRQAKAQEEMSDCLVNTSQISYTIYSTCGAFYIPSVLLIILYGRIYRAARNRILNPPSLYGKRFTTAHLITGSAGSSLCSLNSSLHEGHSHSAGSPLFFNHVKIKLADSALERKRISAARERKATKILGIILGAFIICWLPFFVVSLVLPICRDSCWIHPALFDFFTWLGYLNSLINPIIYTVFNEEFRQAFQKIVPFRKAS", "assay": "Compound was tested for binding affinity against 5-hydroxytryptamine 1D receptor"}, "[6]": {"target": "T2, Serotonin 3 (5-HT3) receptor (Homo sapiens) (UniProt P46098+A5X5Y0+O95264+Q70Z44+Q8WXA8)", "assay": "Percent of control response to 5-HT3 antagonistic activity on guinea colon at a concentration 0.01 uM", "format": "functional, tissue-based", "settings": "Cavia porcellus, target entry is the homologue from another species"}, "[7]": {"assay": "Compound was tested for binding affinity against 5-HT1 receptor"}, "[8]": {"target": "T2, Serotonin 3 (5-HT3) receptor (Homo sapiens)", "assay": "Compound was tested for agonistic activity against 5-hydroxytryptamine 3 receptor on guinea colon at a concentration 0.01 uM", "format": "functional, tissue-based", "settings": "Cavia porcellus, target entry is the homologue from another species"}, "[9]": {"target": "T2, Serotonin 3 (5-HT3) receptor (Homo sapiens)", "assay": "Percent of control response to 5-HT3 agonistic activity on guinea colon at a concentration 0.1 uM", "format": "functional, tissue-based", "settings": "Cavia porcellus, target entry is the homologue from another species"}, "[10]": {"target": "T2, Serotonin 3 (5-HT3) receptor (Homo sapiens)", "assay": "Percent of control response to 5-HT3 agonistic activity on guinea colon at a concentration 0.01 uM", "format": "functional, tissue-based", "settings": "Cavia porcellus, target entry is the homologue from another species"}, "[11]": {"target": "T2, Serotonin 3 (5-HT3) receptor (Homo sapiens)", "assay": "Percent of control response to 5-HT3 agonistic activity on guinea colon at a concentration 1 uM", "format": "functional, tissue-based", "settings": "Cavia porcellus, target entry is the homologue from another species"}, "[12]": {"target": "5-hydroxytryptamine receptor 6 (Homo sapiens) (UniProt P50406)", "sequence (P50406 whole entry)": "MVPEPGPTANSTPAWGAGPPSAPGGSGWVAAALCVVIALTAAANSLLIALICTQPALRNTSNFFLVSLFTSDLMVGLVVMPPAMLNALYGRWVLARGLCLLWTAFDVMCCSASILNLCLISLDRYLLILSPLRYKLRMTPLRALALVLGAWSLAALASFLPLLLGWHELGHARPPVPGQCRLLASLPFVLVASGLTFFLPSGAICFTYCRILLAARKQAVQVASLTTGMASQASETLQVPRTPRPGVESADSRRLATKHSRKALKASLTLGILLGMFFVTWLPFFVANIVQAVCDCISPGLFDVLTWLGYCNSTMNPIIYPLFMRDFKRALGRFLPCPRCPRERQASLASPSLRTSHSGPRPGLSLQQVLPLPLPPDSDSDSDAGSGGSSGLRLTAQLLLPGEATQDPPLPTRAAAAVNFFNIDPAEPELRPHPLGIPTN", "assay": "Percentage of displacement at 5-hydroxytryptamine 6 receptor at 10e-8 M"}, "[13]": {"target": "5-hydroxytryptamine receptor 4 (Homo sapiens, UniProt Q13639)", "sequence (Q13639 whole entry)": "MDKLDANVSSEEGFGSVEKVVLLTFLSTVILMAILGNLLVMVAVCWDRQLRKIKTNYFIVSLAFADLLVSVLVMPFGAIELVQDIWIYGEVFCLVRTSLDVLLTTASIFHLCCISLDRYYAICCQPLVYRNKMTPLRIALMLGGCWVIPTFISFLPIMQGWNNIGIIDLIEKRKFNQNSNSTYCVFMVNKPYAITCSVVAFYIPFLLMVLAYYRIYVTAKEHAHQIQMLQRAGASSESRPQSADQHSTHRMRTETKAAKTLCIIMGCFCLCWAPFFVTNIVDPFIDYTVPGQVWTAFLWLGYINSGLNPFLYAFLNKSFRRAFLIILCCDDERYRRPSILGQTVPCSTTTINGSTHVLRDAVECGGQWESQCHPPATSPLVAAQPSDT", "assay": "Compound was tested for agonistic activity against 5-hydroxytryptamine 4 receptor on guinea colon at a concentration 0.1 uM", "format": "functional, tissue-based"}, "[14]": {"target": "Sodium-dependent dopamine transporter (Homo sapiens) (UniProt Q01959)", "sequence (Q01959 whole entry)": "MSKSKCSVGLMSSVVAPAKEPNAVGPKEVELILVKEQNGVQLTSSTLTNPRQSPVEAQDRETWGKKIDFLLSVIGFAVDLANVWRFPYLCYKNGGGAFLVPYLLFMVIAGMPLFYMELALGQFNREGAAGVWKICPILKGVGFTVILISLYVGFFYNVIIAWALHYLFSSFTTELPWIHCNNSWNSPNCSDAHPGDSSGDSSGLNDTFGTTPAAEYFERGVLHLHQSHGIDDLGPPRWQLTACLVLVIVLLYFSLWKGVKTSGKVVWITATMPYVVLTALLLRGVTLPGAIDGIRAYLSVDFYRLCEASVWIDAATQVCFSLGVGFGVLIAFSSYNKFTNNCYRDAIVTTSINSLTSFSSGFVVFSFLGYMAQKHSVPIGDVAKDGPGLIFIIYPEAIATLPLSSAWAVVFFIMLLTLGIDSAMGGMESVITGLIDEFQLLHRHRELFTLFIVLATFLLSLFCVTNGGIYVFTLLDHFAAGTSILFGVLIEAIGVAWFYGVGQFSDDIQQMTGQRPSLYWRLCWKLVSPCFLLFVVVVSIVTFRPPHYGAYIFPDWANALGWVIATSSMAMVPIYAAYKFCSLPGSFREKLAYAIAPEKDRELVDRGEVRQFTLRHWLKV", "assay": "Compound was tested for binding affinity against dopaminergic uptake"}, "[15]": {"target": "Serotonin 3 (5-HT3) receptor", "assay": "Compound was tested for agonistic activity against 5-HT uptake", "format": "functional"}, "[16]": {"target": "Serotonin 3 (5-HT3) receptor", "assay": "Compound was tested for binding affinity towards 5-hydroxytryptamine 3 receptor", "format": "protein-complex assay"}, "[17]": {"target": "T2, Serotonin 3 (5-HT3) receptor (Homo sapiens)", "assay": "Percent of control response to 5-HT3 agonistic activity on guinea colon at a concentration 1 uM in the presence of 30 uM MDL 72222", "format": "functional, tissue-based", "settings": "Cavia porcellus, target entry is the homologue from another species"}, "[18]": {"target": "T2, Serotonin 3 (5-HT3) receptor (Homo sapiens)", "assay": "Percent of control response to 5-HT3 antagonistic activity on guinea colon at a concentration 1 uM", "format": "functional, tissue-based", "settings": "Cavia porcellus, target entry is the homologue from another species"}, "[19]": {"target": "T3, 5-hydroxytryptamine receptor 2C (Homo sapiens, UniProt P28335)", "T3 sequence (P28335 whole entry)": "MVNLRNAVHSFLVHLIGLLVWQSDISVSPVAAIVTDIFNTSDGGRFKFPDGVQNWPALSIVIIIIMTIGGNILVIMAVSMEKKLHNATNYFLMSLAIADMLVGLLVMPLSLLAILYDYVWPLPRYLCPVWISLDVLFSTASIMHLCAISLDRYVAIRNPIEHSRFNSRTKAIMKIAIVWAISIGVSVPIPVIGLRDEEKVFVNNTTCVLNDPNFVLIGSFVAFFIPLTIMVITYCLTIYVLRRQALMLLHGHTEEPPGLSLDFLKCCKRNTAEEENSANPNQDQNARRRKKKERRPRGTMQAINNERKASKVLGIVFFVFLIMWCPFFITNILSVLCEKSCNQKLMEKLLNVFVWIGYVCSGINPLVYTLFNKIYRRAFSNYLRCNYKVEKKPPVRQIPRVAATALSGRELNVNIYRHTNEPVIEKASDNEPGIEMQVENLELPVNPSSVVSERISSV", "assay": "Compound was tested for binding affinity against 5-hydroxytryptamine 2C receptor"}, "[20]": {"target": "Serotonin 2 (5-HT2) receptor (Homo sapiens, UniProt P41595+P28223+P28335)", "assay": "Compound was tested for binding affinity against 5-hydroxytryptamine 2 receptor", "format": "protein assay"}, "[21]": {"target": "5-hydroxytryptamine receptor 7 (Homo sapiens) (UniProt P34969)", "sequence (P34969 whole entry)": "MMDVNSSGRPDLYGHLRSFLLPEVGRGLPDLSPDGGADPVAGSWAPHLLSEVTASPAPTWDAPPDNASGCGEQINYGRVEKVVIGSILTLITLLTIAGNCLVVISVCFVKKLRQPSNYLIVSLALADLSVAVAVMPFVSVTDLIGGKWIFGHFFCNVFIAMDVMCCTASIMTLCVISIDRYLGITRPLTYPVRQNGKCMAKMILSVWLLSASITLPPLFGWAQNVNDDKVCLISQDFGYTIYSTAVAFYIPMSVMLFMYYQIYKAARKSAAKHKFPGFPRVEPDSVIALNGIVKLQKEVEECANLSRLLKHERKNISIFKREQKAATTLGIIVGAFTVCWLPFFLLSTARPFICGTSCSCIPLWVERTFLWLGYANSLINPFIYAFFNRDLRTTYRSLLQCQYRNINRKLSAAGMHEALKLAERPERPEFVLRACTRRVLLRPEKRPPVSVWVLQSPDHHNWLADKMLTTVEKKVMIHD", "assay": "Percentage of displacement at 5-hydroxytryptamine 7 receptor at 10e-8 M"}, "[22]": {"target": "T2, Serotonin 3 (5-HT3) receptor (Homo sapiens)", "assay": "Compound was tested for agonistic activity against 5-hydroxytryptamine 3 receptor on guinea pig colon at a concentration of 1 uM", "format": "functional, tissue-based", "settings": "Cavia porcellus, target entry is the homologue from another species"}, "[23]": {"target": "T2, Serotonin 3 (5-HT3) receptor (Homo sapiens)", "assay": "Compound was tested for agonistic activity against 5-hydroxytryptamine 3 receptor on guinea pig colon at a concentration of 3 uM", "format": "functional, tissue-based", "settings": "Cavia porcellus, target entry is the homologue from another species"}, "[24]": {"target": "T2, Serotonin 3 (5-HT3) receptor (Homo sapiens)", "assay": "Compound was tested for agonistic activity against 5-hydroxytryptamine 3 receptor on guinea pig colon at a concentration of 10 uM", "format": "functional, tissue-based", "settings": "Cavia porcellus, target entry is the homologue from another species"}, "[25]": {"target": "T2, Serotonin 3 (5-HT3) receptor (Homo sapiens)", "assay": "Compound was tested for agonistic activity against 5-hydroxytryptamine 3 receptor on guinea pig colon at a concentration of 10 uM in the presence of 30 uM MDL 72222", "format": "functional, tissue-based", "settings": "Cavia porcellus, target entry is the homologue from another species"}}}
{"smiles": "c1ccc(CNCCO/N=C2\\c3ccccc3-n3cccc32)cc1", "values": [{"measurement": "-Log IC50", "setting": "[1]", "value": 6.54}]}
{"smiles": "Cc1csc2c1-n1cccc1/C2=N/OCCN1CCCC1", "values": [{"measurement": "-Log IC50", "setting": "[1]", "value": 8.7}]}
{"smiles": "Cc1csc2c1-n1cccc1/C2=N/OCCN(C)Cc1ccccc1", "values": [{"measurement": "-Log IC50", "setting": "[1]", "value": 8.16}]}
{"smiles": "CCN(CC)CCO/N=C1\\c2sccc2-n2cccc21", "values": [{"measurement": "-Log IC50", "setting": "[1]", "value": 8.3}]}
{"smiles": "Cc1csc2c1-n1cccc1/C2=N/OCCN1CCCCC1", "values": [{"measurement": "-Log IC50", "setting": "[1]", "value": 8.4}]}
{"smiles": "CN(C)CCO/N=C1\\c2cc(Cl)ccc2-n2cccc21", "values": [{"measurement": "-Log IC50", "setting": "[1]", "value": 7.06}]}
{"smiles": "CN(C)CCO/N=C1\\c2sccc2-n2cccc21", "values": [{"measurement": "-Log IC50", "setting": "[1]", "value": 8.46}]}
{"smiles": "Cc1csc2c1-n1cccc1/C2=N/OCCN(C)C", "values": [{"measurement": "Affinity", "setting": "[2]", "value": 6, "unit": "%"}, {"measurement": "IC50", "setting": "[3]", "value": 2690, "unit": "nM"}, {"measurement": "IC50", "setting": "[4]", "value": 5750, "unit": "nM"}, {"measurement": "IC50", "setting": "[5]", "value": 479, "unit": "nM"}, {"measurement": "Activity", "setting": "[6]", "value": 64}, {"measurement": "-Log IC50", "setting": "[7]", "value": 5.66}, {"measurement": "Activity", "setting": "[8]", "value": 0}, {"measurement": "Activity", "setting": "[9]", "value": 37}, {"measurement": "Activity", "setting": "[10]", "value": 0}, {"measurement": "Activity", "setting": "[11]", "value": 0}, {"measurement": "Displacement", "setting": "[12]", "value": 0, "unit": "%"}, {"measurement": "IC50", "setting": "[13]", "value": 871, "unit": "nM"}, {"measurement": "Affinity", "setting": "[14]", "value": 5.28, "unit": "%"}, {"measurement": "-Log IC50", "setting": "[15]", "value": 6.92}, {"measurement": "-Log IC50", "setting": "[16]", "value": 9.1}, {"measurement": "Activity", "setting": "[17]", "value": 73}, {"measurement": "Activity", "setting": "[18]", "value": 16}, {"measurement": "IC50", "setting": "[19]", "value": 2140, "unit": "nM"}, {"measurement": "-Log IC50", "setting": "[20]", "value": 5.5}, {"measurement": "Displacement", "setting": "[21]", "value": 0, "unit": "%"}]}
{"smiles": "Cc1ccc(-c2csc3c2-n2cccc2/C3=N/OCCN)cc1", "values": [{"measurement": "-Log IC50", "setting": "[1]", "value": 6.66}]}
{"smiles": "CN(C)CCO/N=C1\\c2ccccc2-n2cccc21", "values": [{"measurement": "-Log IC50", "setting": "[1]", "value": 8.24}]}
{"smiles": "Cc1csc2c1-n1cccc1/C2=N/OCCNCc1ccccc1", "values": [{"measurement": "-Log IC50", "setting": "[1]", "value": 7.54}]}
{"smiles": "CN(CCO/N=C1\\c2sccc2-n2cccc21)Cc1ccccc1", "values": [{"measurement": "-Log IC50", "setting": "[1]", "value": 7.63}]}
{"smiles": "CN1CCCC1CCO/N=C1\\c2ccccc2-n2cccc21", "note": "(configuration not stated)", "values": [{"measurement": "-Log IC50", "setting": "[1]", "value": 7.85}]}
{"smiles": "NCCc1c[nH]c2ccc(O)cc12", "values": [{"measurement": "Agonist activity", "setting": "[22]", "value": 41}, {"measurement": "Agonist activity", "setting": "[23]", "value": 76}, {"measurement": "Agonist activity", "setting": "[24]", "value": 90}, {"measurement": "Agonist activity", "setting": "[25]", "value": 0}]}
{"smiles": "Cc1csc2c1-n1cccc1/C2=N/OCCCN(C)Cc1ccccc1", "values": [{"measurement": "-Log IC50", "setting": "[1]", "value": 7.47}]}
{"smiles": "Cc1csc2c1-n1cccc1/C2=N/OCCCN(C)C", "values": [{"measurement": "-Log IC50", "setting": "[1]", "value": 8.6}]}
{"smiles": "Cc1csc2c1-n1cccc1/C2=N/OCCN", "values": [{"measurement": "-Log IC50", "setting": "[1]", "value": 7.62}]}
{"smiles": "NCCO/N=C1\\c2ccccc2-n2cccc21", "values": [{"measurement": "-Log IC50", "setting": "[1]", "value": 6.66}]}
{"smiles": "c1ccc(CN2CCN(c3nc4sccc4n4cccc34)CC2)cc1", "values": [{"measurement": "-Log IC50", "setting": "[1]", "value": 8.34}]}
{"smiles": "Cc1csc2c1-n1cccc1/C2=N/OCCC1CCCN1C", "note": "(configuration not stated)", "values": [{"measurement": "-Log IC50", "setting": "[1]", "value": 8.7}]}
